Test results: patent US10183011B2, “Anti-depression compounds” (Board of Regents of the University of Texas System, priority 2009, dated 2019)
“Also recorded” adds a separate entry of the source.

How the values were obtained:
[1] = tested on: cultured primary cortical neurons; assay: Mitochondrial membrane potential (TMRM) after A23187 in cultured primary cortical neurons; type: cell-based; details: rat E14 cortical neurons
Description: (§1) FIG. 23: Example 45 Compound Preserves Mitochondrial Membrane Potential in Cultured Primary Cortical Neurons. Cortical neurons cultures from rats on embryonic day 14 were loaded with tetramethylrhodamine methyl ester (TMRM) dye after 6 days of maturation. […] The remaining panels are from cells that were exposed to the calcium ionophore A23187 at time zero. With vehicle-alone, cortical neuron mitochondrial membrane potential was rapidly lost after exposure to the ionophore. […] Results shown are representative of 10 fields analyzed in each of 2 experimental runs for all conditions.
as §1, with “It was also examined whether” for “FIG. 23:”, “preserves mitochondrial membrane potential” for “Preserves Mitochondrial Membrane Potential”, “cultured primary cortical neurons (FIG. 23).” for “Cultured Primary Cortical Neurons.”

[2] = tested on: dentate gyrus of NPAS3-deficient mice; assay: NPAS3-deficient mice: neurogenesis, apoptosis, morphology and electrophysiology of the dentate gyrus; type: in vivo, mouse (npas3−/−)
Method: FIG. 14: Example 45 Compound has pro-neurogenic or neuroprotective efficacy in the dentate gyrus of NPAS3-deficient animals. Six 12 week old npas3^−/− mice were orally administered vehicle or Example 45 Compound (20 mg/kg/d) for 12 days, and also injected daily with BrdU (50 mg/kg). At the end of day 12, mice were sacrificed and tissue was stained for BrdU and doublecortin (DCX).
Apoptosis in NPAS3-deficient animals was inhibited by treatment with Example 45 Compound (20 mg/kg/d, p.o., for 12 days), whereas analogous treatment with vehicle alone had no effect. Images shown are representative of 10-12 sections evaluated per animal, with 3-5 […] male NPAS3-deficient mice per group.
Armed with these genotype- and region-specific deficits in both neuron morphology and electrophysiological activity, whether prolonged administration of Example 45 Compound might favorably repair either deficit in NPAS3-deficient animals was tested. […] Following oral gavage of pregnant female mice, 14 day embryos were recovered, dissected and processed by acetonitrile:water extraction so that Example 45 Compound levels could be measured in the embryonic brain. Daily administration of 20 mg/kg of Example 45 Compound to pregnant females yielded appreciable levels of the compound in the brain tissue of developing embryos. It was similarly observed that oral administration of the compound to lactating females led to delivery of Example 45 Compound to the brain tissue of weanling pups. […] Finally, it was observed that daily IP administration of Example 45 Compound to weaned pups at 20 mg/kg was sufficient to yield brain levels of Example 45 Compound at or above the level required to enhance adult neurogenesis.
Female mice heterozygous at the NPAS3 locus were mated to heterozygous males. Two weeks post-mating, females were given a daily oral gavage of either 20 mg/kg of Example 45 Compound or vehicle-only formula. Dosing was continued throughout the last trimester of pregnancy, as well as the two week post-natal period of lactation. Following weaning, pups were given a daily IP dose of either 20 mg/kg Example 45 Compound or vehicle control. At about 7 weeks of age, mice were switched to oral gavage delivery of the same dose of Example 45 Compound. When mice were 3 months of age they were sacrificed and brain tissue was dissected and subjected to either Golgi-Cox staining or electrophysiological recording. […] The corresponding electrophysiological deficit in CA1 region of the hippocampus, however, was not affected (FIG. 13B), underscoring the specificity of Example 45 Compound to improving functioning of the dentate gyrus in this animal model.
Recognizing that the reduced thickness of the granular layer of the dentate gyrus in NPAS3-deficient animals could be attributed to elevated levels of apoptosis of newborn hippocampal neural precursor cells, the effect of Example 45 Compound treatment on apoptosis in the hippocampus of NPAS3-deficient animals was examined through immunohistochemical staining of cleaved caspase 3 (CCSP3). […] It is thereby proposed that Example 45 Compound facilitated repair of the granular layer of the dentate gyrus in NPAS3-deficient mice by ameliorating a genotype-specific exacerbation of programmed cell death.

[3] = tested on: TH+ dopaminergic neurons in the substantia nigra; assay: MPTP model of Parkinson's disease, treatment before, during and after MPTP; type: in vivo, mouse (C57BL/6); details: 10 mg/kg i.p. twice daily; MPTP 30 mg/kg/day for 5 days
Method: FIG. 25A and FIG. 25B. Example 6a Compound (P7C3A20) Provides Therapeutic Benefit in Animal Model of Parkinson's Disease. Mice were treated with MPTP (30 mg/kg i.p.) or Vehicle only for 5 days and then immunohistochemically analyzed for tyrosine hydroxylase staining (TH) 21 days later (FIG. 25A). Treatment with MPTP and Vehicle (n=6) reduced the number of TH+ neurons in the substantia nigra (FIG. 25B) by approximately 50% (*, p=0.0002, Student's t test) relative to mice that received Vehicle only (n=8). […] TH+ neurons in the substantia nigra of every mouse were counted blind to treatment group by two investigators using Image J software, and results were averaged.
MPTP (1-methyl-4-phenyl-1,2,3,6-tetrahydropyridine) is a potent neurotoxin that selectively kills dopaminergic neurons in the substantia nigra of both mice and monkeys, causing a clinical picture resembling PD. The MPTP toxicity model can therefore be used to study the death of dopaminergic neurons with the goal of developing new treatments for PD based on neuroprotective strategies found to be effective in these neurons. […] TH-positive cells were counted in the substantia nigra area.

[4] = tested on: histamine receptor; assay: Histamine receptor binding
[5] = biological target: β-secretase (BACE1) (Homo sapiens, UniProt P56817); details: Asso V., et al. (2008) Chem Med Chem 3:1530-1534; cited from earlier work
Sequence of β-secretase (BACE1) (P56817 46-501, species assumed): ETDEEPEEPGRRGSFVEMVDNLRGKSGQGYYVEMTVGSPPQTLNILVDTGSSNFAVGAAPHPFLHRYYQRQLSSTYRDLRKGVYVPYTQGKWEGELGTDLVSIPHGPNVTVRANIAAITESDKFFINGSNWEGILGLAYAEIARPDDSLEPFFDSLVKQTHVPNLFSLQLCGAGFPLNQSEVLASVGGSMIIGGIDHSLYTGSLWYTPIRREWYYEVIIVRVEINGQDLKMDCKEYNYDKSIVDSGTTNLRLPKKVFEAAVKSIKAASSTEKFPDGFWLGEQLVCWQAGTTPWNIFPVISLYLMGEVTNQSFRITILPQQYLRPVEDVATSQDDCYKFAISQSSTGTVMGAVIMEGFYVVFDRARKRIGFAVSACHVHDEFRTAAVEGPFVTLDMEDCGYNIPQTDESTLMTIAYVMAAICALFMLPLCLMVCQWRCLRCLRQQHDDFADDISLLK

OC(CNc1ccccc1)Cn1c2ccc(Br)cc2c2cc(Br)ccc21 (centres unmarked) [Example 45 Compound]
dose giving full protection of mitochondrial membrane potential [1]: 1 mM | brain level in embryos and weanling pups ([2]; 20 mg/kg daily oral to pregnant or lactating females, LC/MS): ≥ 1350 nM | thickness of hippocampal subfields ([2]; 20 mg/kg/d from embryonic day 14 until 3 months of age, npas3−/− mice): selectively increased the thickness of the dentate gyrus granular cell layer | cleaved caspase 3 (CCSP3) staining, apoptosis in the dentate gyrus ([2]; 20 mg/kg/d p.o. for 12 days, NPAS3-deficient mice): significantly reduced CCSP3 staining in the dentate gyrus; also recorded: statistically significant reduction in CCSP3 staining; also recorded: inhibited | dendritic arborization of dentate gyrus granular neurons (Golgi-Cox) ([2]; extended daily treatment 20 mg/kg/d, npas3−/− mice): robustly repaired morphological deficits in the dendritic branching; also recorded: enhanced dendritic arborization | synaptic responses (fEPSP) in hippocampal slices ([2]; extended treatment, npas3−/− mice): normalized synaptic responses in the dentate gyrus but not the CA1 region | increase of neurogenesis (BrdU) in npas3−/− mice ([2]; oral 20 mg/kg/d for 12 days): roughly 4 fold | health of treated animals ([2]; prolonged administration 20 mg/kg, relative to vehicle-only controls): did not affect any aspect of the health of mothers, embryos, weanlings or young adult mice

COc1cccc(NCC(F)Cn2c3ccc(Br)cc3c3cc(Br)ccc32)c1 (centres unmarked) [Example P7C3A20, N-(3-(3,6-dibromo-9H-carbazol-9-yl)-2-fluoropropyl)-3-methoxyaniline]
MPTP-mediated death of TH+ neurons in the substantia nigra [3]: significantly attenuates MPTP-mediated killing of substantia nigra dopaminergic neurons; also recorded: significantly attenuated | histamine receptor binding [4]: no hERG channel binding, histamine receptor binding

OC(CNc1cccc2ccccc12)Cn1c2ccc(Cl)cc2c2cc(Cl)ccc21 (centres unmarked) [Example P7C3-S184]
BACE1 inhibition [5]: reported as a β-secretase (BACE1) inhibitor
